Source: patent publication US20260240820A1, “METHOD FOR CONTROLLING MEMBRANE POTENTIAL-DEPENDENT ION CHANNEL THROUGH TYPE I TASTE RECEPTORS (T1RS)” (ION CHAT RESEARCH CORPORATE, priority 2022, published 2026)
“Also recorded” adds a separate entry of the source. Where two headings read alike, the source gives them in different places.

What was measured:
VGSC = assay: Patch-clamp recording of VGSC current, cell type not specified or several cell types (summary statements); assay type: cell-based, human
Nav1.5 = assay: Patch-clamp (voltage clamp) recording of VGSC current in HEK cells stably expressing Nav1.5
[1] = test system: voltage-dependent potassium channel current of SH-SY5Y cells; assay: Voltage clamp recording of outward potassium current in SH-SY5Y cells; assay type: cell-based, human; conditions: 2 mM
Source text: The inward current represents the transient peak observed immediately after stimulation, while the outward current measures the average value during the last 50 ms of rectangular pulse stimulation.

[2] = test system: VGSC of SH-SY5Y cells (Nav1.7, Nav1.2, Nav1.3); assay: Patch-clamp recording of VGSC current in differentiated SH-SY5Y cells; assay type: cell-based, human; conditions: for IC50: read-out: IC50 (VGSC inhibition)
Source text: Furthermore, the inventors focused on the relationship between taste receptors, particularly the sweet or umami receptors containing the T1R3 subunit, which are widely expressed in the brain and nervous system, including the hippocampus and cortex. They used human neuroblastoma cells (SH-SY5Y) that functionally express Nav1.2, Nav1.3, and Nav1.7 (as reported in non-patent literature 8), as well as HEK cells stably expressing Nav1.5 (with endogenous expression of T1R1, T1R2, and T1R3). They observed the effects of taste stimuli on sodium channel activation. By reducing the expression of T1R1 and T1R3 genes using silencing vectors, they confirmed that the effects on sodium channel currents induced by taste stimuli act through taste receptor GPCRs.
The SH-SY5Y cell culture medium was prepared by mixing DMEM (Sigma-Aldrich) and F-12 (Sigma-Aldrich) in equal proportions. To induce neuronal-like differentiation, the medium contained 1% FBS (BioWest), 5% 40 mM L-Glutamine (Fuji Film), and 1% MEM non-essential amino acids (Wako Pure Chemical Industries). During differentiation, SH-SY5Y cells were cultured for at least 5 days with the addition of 10 μM/ml retinoic acid (Fuji Film). In this document, “SH-SY5Y cells” refer to the SH-SY5Y cell line differentiated into neuronal-like cells.

Kv1.2 = assay: Patch-clamp recording of Kv1.2 potassium current in HEK cells expressing Kv1.2; assay type: cell-based, human
Experimental: The effects of Aβ peptides or umami substances on sustained potassium currents (VGKC) in cardiac myocytes can be studied using HEK cells expressing VGKC (such as Kv1.2, Kv3.2, Kv3.3) as well as SH-SY5Y cells expressing endogenous T1R GPCRs. For instance, as shown in the implementation example in (FIG. 36B), Aβ peptides were applied to VGKC-expressing human cultured cells, and VGKC currents were recorded using ramp-like or rectangular voltage waveforms via the patch-clamp technique. This allowed measurement of the changes (inhibition) in VGKC currents caused by Aβ peptides. Similar inhibition studies on VGKC can be conducted using umami substance L-glutamate sodium (MSG) (FIG. 36A).
As shown in (FIG. 37), Aβ1-42 peptide, unlike Aβ25-35 targeting T1R3, interacts with T1R1 and inhibits VGSC currents (FIGS. 37D, E).

[3] = test system: Nav1.5 in T1R3-silenced HEK cells; assay: VGSC current in HEK Nav1.5 cells with silenced T1R3; assay type: cell-based, human
Source text: The miRNAs Oligo (Thermofisher) used for silencing were annealed to form double-stranded DNA, which was then linked to the miR RNAi Expression Vector using T4 DNA ligase to create the knockdown vector. Specifically, the procedure followed the miR RNAi Expression Vector Kit manual (BLOCK-i™ Pol II miR RNAi Expression Vector Kit with EmGFP (Catalog number: K493600)).
Since Aβ25-35 peptide produced similar effects (enhancing VGSC activity, lowering the excitability threshold) as glutamine, it was considered that Aβ25-35 peptide might also act on T1R2/T1R3 receptors like glutamine. Therefore, in this implementation example, we used HEK-Nav1.5 cells with silenced T1R3 and compared the effect of Aβ25-35 peptide on VGSC with that in control HEK-Nav1.5 cells.
To strengthen these findings, we conducted similar experiments using HEK Nav1.5 cells in which T1R3 expression was silenced (FIG. 22). We measured VGSC currents in T1R3-silenced HEK Nav1.5 cells, applying stimuli every 8 seconds.

## COc1cc2c(c(OC)c1OC)-c1ccc(OC)c(=O)cc1[C@@H](NC(C)=O)CC2 [Colchicine]
VGSC
  Effects on VGSCs: Enhances VGSC
VGSC; 2.25 μM, at −40 mV
  VGSC current amplitude: nearly doubled

## NCCCC(=O)O [GABA, γ-aminobutyric acid]
Nav1.5; applied after Aβ42/40 (AD-D)
  Effect on VGSC current enhanced by Aβ42/40 (AD-D): no effects similar to β-alanine were observed

## Nc1nc2c(ncn2[C@@H]2O[C@H](COP(=O)(O)O)[C@@H](O)[C@H]2O)c(=O)[nH]1 [GMP, guanosine 5′-monophosphate]
[1]
  Effect on outward potassium current: peak outward potassium current decreases; also recorded: reduced outward potassium currents
VGSC
  Effects on VGSCs: enhances VGSC; also recorded: Enhancement of VGSC
VGSC; 1 mM
  Effect on VGSC: 1 mM GMP, much like L-Gln, primarily enhances VGSC without altering
[2]
  Leftward shift in the I-V curve: approximately 10 mV
[2]; 2 mM
  Effect on VGSC current: slight increase in VGSC currents
  Steady-state inactivation curve: No change; also recorded: No changes were observed

## OC[C@H]1OC(O)[C@H](O)[C@@H](O)[C@@H]1O (stereo partly drawn) [Glucose]
VGSC; <10 mM
  Effects on VGSCs: Enhancement of VGSC
VGSC; >20 mM
  Effects on VGSCs: Inhibition of VGSCs

## NC(=O)CC[C@H](N)C(=O)O [L-Gln, L-glutamine]
VGSC
  Effects on VGSCs: Enhancement of VGSC; also recorded: Delay in VGSC inactivation
VGSC; 0.5-1 mM, SH-SY5Y (n=8) and HEK-Nav1.5 (n=4)
  Increase in VGSC current: 10-20%
VGSC; concentrations higher than 1 mM
  Effect on VGSC current: 500 uM and 1 mM but not at higher
VGSC; concentrations higher than 1 mM, listed as glutamine
  Effect on VGSC current: No further enhancement
Kv1.2
  Effect on voltage gated K+ channel (Kv1.2) current: Inhibition of Voltage gated
[2]; 500 μM
  Effect on VGSC inward current: enhancement of transient downward VGSC current; also recorded: amplification of VGSC inward current

## N[C@@H](CO)C(=O)O [L-Serin, L-serine]
VGSC
  Effects on VGSCs: Enhancement of VGSC
VGSC; 2.5 mM
  Effect on VGSC current: Enhances VGSC currentat 2.5 mM

## COc1ccc(OC(C)C(=O)O)cc1 (stereo not drawn) [Lactisole]
Nav1.5; 1-1.5 mM
  Effect on VGSC enhanced by Aβ25-35: inhibits the enhancing effect of Aβ25-35 on VGSC; also recorded: recovered to the size of VGSC recorded in the control
VGSC
  Effects on VGSCs: Inhibition of VGSCs

## C/C1=C/C(=O)O[C@@H]2C[C@@H](CC[C@H](C)/C=C\C=C\CC1)O[C@@](O)([C@@H]1CSC(=O)N1)C2 [Latrunculin A]
VGSC
  Effects on VGSCs: reduces VGSC
  Shift of steady-state inactivation (S-S) curve of VGSC: shifting the S-S curve toward hyperpolarization
VGSC; 12.6 μM
  Effect on VGSC current: shifted the VGSC current toward hyperpolarization and inhibited it
VGSC; 12.6 μM, listed as LatA
  Effect on VGSC current: significantly inhibits VGSC current

## CC(C)(Cc1ccc2ccccc2c1)NC[C@@H](O)COc1cccc(Cl)c1C#N [NPS-2143]
Nav1.5; 5 μM
  Effect on VGSC current: Inhibitory effect; also recorded: slowly inhibited
Nav1.5; when VGSC inhibition nearly complete
  Effect on leak (baseline) current: non-selective leak currents
[3]
  Effect on VGSC in T1R3-silenced cells: no VGSC inhibitory effect was observed
VGSC
  Effects on VGSCs: inhibited human VGSC; also recorded: Inhibition of VGSCs
VGSC; HEK Nav1.5 and SH-SY5Y
  Required concentration for VGSC inhibition: 5 µM

## OC[C@H]1O[C@@](CO)(O[C@H]2O[C@H](CO)[C@@H](O)[C@H](O)[C@H]2O)[C@@H](O)[C@@H]1O [Sucrose]
VGSC
  Effects on VGSCs: Inhibition of VGSCs

## Brc1c(Br)c(Br)c2[nH]nnc2c1Br [TBB, 4,5,6,7-tetrabromobenzotriazole]
Nav1.5
  Effect on VGSC current amplitude: reduced the amplitude of VGSC current
  Shift of steady-state inactivation (S-S) curve of VGSC: shifted gradually to the left; also recorded: significantly shifts in the hyperpolarizing direction
Nav1.5; 10 μM, prepulse −80 mV, test pulse −20 mV
  Suppression of VGSC current: almost completely suppressed
Nav1.5; 10 μM, prepulse −100 mV
  Suppression of VGSC current: about half suppressed
Nav1.5; 10 μM, prepulse −120 mV
  VGSC current unaffected: more than 80%
Nav1.5; minimum concentration (printed 30 μM), preceding pulse −80 mV
  VGSC current inhibition: nearly complete VGSC current inhibition
Nav1.5; prepulse −120 mV, at the used TBB concentration
  Suppression of VGSC current: about 50%
Nav1.5; read-out: IC50 from difference in Vh of steady-state inactivation curve (Hill equation)
  IC50: 12.9 µM
Nav1.5; read-out: IC50 of inhibition of VGSC current (INa, step −100 mV to −20 mV, Hill plot), prepulse −100 mV
  IC50: 15.8 µM
VGSC
  Shift of steady-state inactivation (S-S) curve of VGSC: shifted to the hyperpolarizing direction even at control recordings.

## CC(=O)O[C@H]1C(=O)[C@@]2(C)[C@H]([C@H](OC(=O)c3ccccc3)[C@]3(O)C[C@H](OC(=O)[C@H](O)[C@@H](NC(=O)c4ccccc4)c4ccccc4)C(C)=C1C3(C)C)[C@]1(OC(C)=O)CO[C@@H]1C[C@@H]2O [Taxol]
Nav1.5; 0.4 μM to […]
  Effect on VGSC current: VGSC enhancement was observed
Nav1.5; 0.4 μM to […], listed as Paclitaxel (Taxol)
  Effect on VGSC current: enhances HEK Nav1.5 cell VGSC
VGSC
  Effects on VGSCs: Enhances VGSC

## N[C@@H](CC(=O)O)C(=O)O [aspartic acid]
VGSC
  Effect on VGSC inactivation: delay VGSC inactivation

## CC(Oc1ccc(Cl)cc1Cl)C(=O)O (stereo not drawn) [dichlorprop, 2-(2,4-dichlorophenoxy) propanoic acid]
Nav1.5
  Effect on VGSC current amplitude: reduced the amplitude of VGSC current
Nav1.5; 500 μM
  Vh of steady-state inactivation curve: shifted to a more negative potential
Nav1.5; Control vs 300 and 500 μM, t-test
  Slope of steady-state inactivation curve: no significant difference
Nav1.5; in the presence of Taxol
  Effect on S-S curve of VGSC in the presence of Taxol: shifted the S-S curve of VGSC in the hyperpolarizing direction
VGSC; dichlorprop>>clofibrate>lactisole
  Rank among sweet taste inhibitors in inhibiting Na+ channels: most effective inhibitor of sodium channels at the lowest concentration; also recorded: most potent
VGSC; listed as DichrolProp
  Effects on VGSCs: Inhibition of VGSCs
[2]; prepulse −80 mV
  IC50: 17.3 µM
[2]; prepulse/holding voltage −60 mV
  IC50: 9 µM

## NCCCC[C@H](N)C(=O)O [lysine]
VGSC
  Effect on VGSC inactivation: delay VGSC inactivation
